According to patent US7504433B2, “Thiophene derivative PPAR modulators” (Eli Lilly and Company, priority 2003, dated 2009):

Question: With Cc1cc(OC[C@@H](C)c2sc(-c3ccc(C(F)(F)F)cc3)cc2C)ccc1CCC(=O)O (single isomer, unassigned) [Example 16, 3-(2-Methyl-4-{2-[3-methyl-5-(4-trifluoromethylphenyl)thiophen-2-yl]propoxy}-phenyl)propionic acid] as the compound, how does the melting point read?
Answer: 126.2 to 132.6 °C
